{"source": "paper PMC5613053", "about": "(Investigational New Drugs, 2017)", "key": {"[1]": {"test_system": "Ba/F3 cells expressing FLT3-ITD", "experiment": "cells", "conditions": "Mus musculus, BaF3, 48 h, read-out: Cell growth inhibition IC50", "protocol": "(§1) A detailed protocol is provided in the online resource.\n(§2) To examine the effect of ASP2215 on cell viability, MV4-11, MOLM-13, and Ba/F3 cells expressing either FLT3-ITD, FLT3-D835Y, FLT3-ITD-D835Y, FLT3-ITD-F691L or FLT3-ITD-F691I were seeded into 96-well white plates (Nunc F96 MicroWell™ Plates, white; Thermo Fisher Scientific Inc., Waltham, MA) at 1000 cells/well in Iscove’s Modified Dulbecco’s Medium, 500 cells/well in RPMI 1640 or 1000 cells/well in RPMI 1640, respectively. All cell lines were cultured overnight in a humidified incubator at 37°C with 5% CO2 in media supplemented with 10% heat-inactivated FBS.\n(§3) After treatment, the CellTiter-Glo® Luminescent Cell Viability Assay (Promega) was used according to the manufacturer’s instructions and luminescence was measured using an ARVO-HTS plate reader (Perkin Elmer Inc., Waltham, MA). The assay was performed in either triplicate or quadruplicate. […] The geometric mean was calculated from three individual experiments.\n(§4) The mutants of FLT3 (NM_004119), FLT3-D835Y (gat to tat), FLT3-ITD (insertion of […] at 1799 position of CDS), FLT3-ITD-F691I (ttt to att), FLT3-ITD-F691L (ttt to ctt), FLT3-ITD-D835Y were encoded into pMX-puro vector (Cell Biolabs, Inc., San Diego, CA), and transfected with FuGENE-HD (Promega) into Platinum-E cells. […]"}, "[2]": {"test_system": "Ba/F3 cells expressing FLT3-ITD-D835Y", "experiment": "cells", "conditions": "Mus musculus, BaF3, 48 h, read-out: Cell growth inhibition IC50", "protocol": "as §1, §2, §3, §4"}, "[3]": {"test_system": "Ba/F3 cells expressing FLT3-ITD", "experiment": "Ba/F3 FLT3-ITD subcutaneous xenograft", "type": "in vivo, mice", "conditions": "up to 7 days", "protocol": "(§5) Once tumor growth had been confirmed, mice xenografted with MV4–11 cells were monitored for 28 days; mice xenografted with Ba/F3 cells expressing FLT3 mutations were monitored for 7 days. Tumor diameter was measured using a caliper, and tumor volume was determined by calculating the volume of an ellipsoid using the formula: length × width^2 × 0.5. Body weight was measured using a standard balance. Data are expressed as mean ± SEM from n = 6 mice/group (MV4–11) and n = 5 mice/group (Ba/F3).\n(§6) After tumor establishment, mice were divided into groups such that the mean tumor volume was approximately equal in each group."}, "AXL": {"target": "T1, AXL (Homo sapiens, UniProt P30530)", "T1 construct": "purchased Carna Biosciences, Inc", "T1 sequence (P30530 26-894)": "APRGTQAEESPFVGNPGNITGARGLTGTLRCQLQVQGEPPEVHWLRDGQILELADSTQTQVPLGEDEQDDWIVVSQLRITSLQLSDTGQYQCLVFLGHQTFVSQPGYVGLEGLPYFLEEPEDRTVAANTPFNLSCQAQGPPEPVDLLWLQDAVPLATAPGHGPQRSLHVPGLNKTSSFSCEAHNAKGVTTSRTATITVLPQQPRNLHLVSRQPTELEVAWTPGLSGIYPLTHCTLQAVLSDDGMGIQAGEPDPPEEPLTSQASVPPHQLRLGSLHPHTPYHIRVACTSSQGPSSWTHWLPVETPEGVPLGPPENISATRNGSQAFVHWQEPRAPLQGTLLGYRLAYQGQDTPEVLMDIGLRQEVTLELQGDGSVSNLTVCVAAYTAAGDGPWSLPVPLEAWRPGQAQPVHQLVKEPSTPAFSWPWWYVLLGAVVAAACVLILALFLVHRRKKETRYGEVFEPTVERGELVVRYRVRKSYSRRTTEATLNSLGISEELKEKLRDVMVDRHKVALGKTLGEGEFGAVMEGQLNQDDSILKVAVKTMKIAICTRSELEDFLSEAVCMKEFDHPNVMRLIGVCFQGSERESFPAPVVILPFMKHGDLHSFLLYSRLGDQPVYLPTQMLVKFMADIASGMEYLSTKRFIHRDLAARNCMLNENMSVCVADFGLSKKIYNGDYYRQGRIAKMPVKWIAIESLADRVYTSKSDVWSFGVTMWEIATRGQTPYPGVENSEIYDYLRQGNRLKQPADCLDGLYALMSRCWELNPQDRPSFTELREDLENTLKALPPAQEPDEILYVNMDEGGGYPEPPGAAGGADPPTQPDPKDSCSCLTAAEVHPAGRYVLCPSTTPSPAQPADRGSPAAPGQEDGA", "experiment": "Kinase inhibitory assay (TK-ELISA / off-chip MSA)", "type": "biochemical", "conditions": "1 nM; single experiment", "quoted_text": "These assays were conducted according to the manufacturer’s instructions. […] TK-ELISA and MSA assays were used to conduct IC50 studies for FLT3, LTK, AXL, and c-KIT; the HTRF® KinEASE™-TK assay (Sceti Medical Labo, Tokyo, Japan) was performed according to the manufacturer’s protocol to assess the IC50 value of echinoderm microtubule-associated protein-like 4-ALK (EML4-ALK; three individual experiments for each kinase)."}, "MV4–11 tumors": {"test_system": "MV4–11 tumors", "experiment": "MV4–11 subcutaneous xenograft antitumor activity", "type": "in vivo, mice", "conditions": "28 days; for Mice with complete tumor regression: n = 6", "protocol": "as §5, §6"}, "[4]": {"test_system": "Ba/F3 cells expressing FLT3-ITD-F691I", "experiment": "CellTiter-Glo cell viability", "type": "cell-based", "conditions": "Mus musculus, BaF3, 48 h; 2 days of treatment; read-out: Cell growth inhibition IC50", "protocol": "as §1, §2, §3, §4"}, "[5]": {"test_system": "Ba/F3 cells expressing FLT3-ITD-F691 L", "experiment": "CellTiter-Glo cell viability", "type": "cell-based", "conditions": "Mus musculus, BaF3, 48 h; 2 days of treatment; read-out: Cell growth inhibition IC50", "protocol": "as §1, §2, §3, §4"}, "phospho-STAT5": {"test_system": "phospho-STAT5", "experiment": "Immunoblot for phosphorylated STAT5 / STAT5 in MV4-11 xenograft tumors", "type": "in vivo, mice", "conditions": "for Phospho-STAT5, % of baseline levels: 3 mg/kg", "excerpt": "Detailed protocols can be found in the online resource.\nAfter 1 month, mice were divided into groups, with each group having approximately the same mean tumor volume.\nMV4-11 xenograft tumor protein samples were electrophoresed on 7.5% gels, transferred to PVDF membranes, and probed for phosphorylated-STAT and total STAT5 as described earlier with one alteration. Following detection of phosphorylated STAT5, the membrane was stripped using Restore™ Western Blot Stripping Buffer (Thermo Fisher Scientific) and then re-probed for total STAT5. Phosphorylation levels were normalized to total STAT5 levels in each group (3 mice/group) relative to the mean value of the control group (4 mice/group). Data are reported as mean ± SEM."}}}
{"smiles": "CCc1nc(C(N)=O)c(Nc2ccc(N3CCC(N4CCN(C)CC4)CC3)c(OC)c2)nc1NC1CCOCC1", "note": "[gilteritinib]", "values": [{"measurement": "IC50", "setting": "[1]", "value": 1.8, "unit": "nM"}, {"measurement": "IC50", "setting": "[2]", "value": 2.1, "unit": "nM"}, {"measurement": "Antitumor effect (tumor volume)", "setting": "[3]; 10 mg/kg once-daily oral", "value": "showed antitumor efficacy"}, {"measurement": "Antitumor effect (tumor volume)", "setting": "[3]; 30 mg/kg once-daily oral", "value": "induced tumor regression"}, {"measurement": "inhibition at 0.001 µM", "setting": "AXL", "value": "> 50", "unit": "%"}, {"measurement": "Growth inhibition of MV4–11 tumors", "setting": "MV4–11 tumors; 1 mg/kg/day oral once daily", "value": 63, "unit": "%"}, {"measurement": "Growth inhibition of MV4–11 tumors", "setting": "MV4–11 tumors; 3 mg/kg/day oral once daily", "value": 80, "unit": "%"}, {"measurement": "Tumor regression", "setting": "MV4–11 tumors; 6 mg/kg/day oral once daily", "value": 93, "unit": "%"}, {"measurement": "Mice with complete tumor regression", "setting": "MV4–11 tumors; 6 mg/kg/day", "value": "Four of the six mice"}, {"measurement": "Tumor regression", "setting": "MV4–11 tumors; 10 mg/kg/day oral once daily", "value": 100, "unit": "%"}, {"measurement": "Mice with complete tumor regression", "setting": "MV4–11 tumors; 10 mg/kg/day", "value": "all six mice"}, {"measurement": "IC50", "setting": "[4]", "value": 49, "unit": "nM"}, {"measurement": "IC50", "setting": "[5]", "value": 22, "unit": "nM"}, {"measurement": "Phospho-STAT5, % of baseline levels", "setting": "phospho-STAT5; 4 h and 8 h", "value": "< 20", "unit": "%"}, {"measurement": "Phospho-STAT5, % of baseline levels", "setting": "phospho-STAT5; 24 h", "value": "approximately 50%"}, {"measurement": "Phosphorylation level of STAT5 in tumors", "setting": "phospho-STAT5; 4 h and 8 h after single dose of 6 mg/kg or 10 mg/kg", "value": "almost completely abolished"}, {"measurement": "STAT5 phosphorylation level, % of baseline", "setting": "phospho-STAT5; 24 h post drug, 6 mg/kg or 10 mg/kg", "value": "~20", "unit": "%"}]}
